Our source for the IC50 values is patent publication US8513250B2 (Laboratoire Biodim, priority 2007, dated 2013).

Usually IC50 stands for the concentration that gives 50% inhibition.

SMILES strings stand for the structures. Structures can show the parent of a compound that is named as a salt.

The first test addresses T1, DltA enzyme (Streptococcus agalactiae serotype III, UniProt Q8VM67).
T1 construct: His-tag (from pET100 vector) (N); made in house; host or cells: E. coli BL21 (DE3) Star
T1 sequence (Q8VM67 1-511): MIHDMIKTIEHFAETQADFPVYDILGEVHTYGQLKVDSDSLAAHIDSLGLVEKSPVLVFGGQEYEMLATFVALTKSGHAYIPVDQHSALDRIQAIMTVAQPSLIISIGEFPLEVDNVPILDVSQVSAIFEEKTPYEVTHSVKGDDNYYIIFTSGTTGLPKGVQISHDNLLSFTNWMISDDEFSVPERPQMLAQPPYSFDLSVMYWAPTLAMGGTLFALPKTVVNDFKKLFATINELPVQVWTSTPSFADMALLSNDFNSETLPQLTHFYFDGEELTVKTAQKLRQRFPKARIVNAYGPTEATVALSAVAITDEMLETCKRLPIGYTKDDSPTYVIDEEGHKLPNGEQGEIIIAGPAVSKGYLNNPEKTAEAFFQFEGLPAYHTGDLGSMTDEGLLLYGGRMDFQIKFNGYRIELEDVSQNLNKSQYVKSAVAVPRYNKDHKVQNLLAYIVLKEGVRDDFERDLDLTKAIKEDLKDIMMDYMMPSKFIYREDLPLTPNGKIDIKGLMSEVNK
The test is described as follows: DltA HTS assays (luminescent / fluorescent), inhibition of DltA enzymatic activity in vitro. It counts as biochemical, S. agalactiae.
Settings: not given
An excerpt:
The compounds effect on DltA enzyme has been based on the measure of the inhibition of DltA activity in vitro.
To this end, a recombinant protein Dlta was expressed and purified after cloning of the gene of S. agalatiae as described below:
Methods 1: DltA HTS Assays
The assay described below makes use of dithiothreitol (DTT) instead of DltC as reactive thiol in the catalyzed reaction. In fact, the inventors have shown that DTT, but also Coenzyme A and N-Acetylcysteamine are all thiols able to replace efficiently DltC. In addition, contrary to the prior art, radioactivity is not used: all the assays are based either on luminescent ATP detection, or on fluorescent AMP detection. They are easily amenable to miniaturized formats and fast readouts as required by HTS.
The assay buffer “AB” contains 50 mM Hepes pH8.0, 10 mM MgCl2, 50 mM KCl, 0.012% Triton-X100. The following components are added in a white polystyrene Costar plate up to a final volume of 30 μL: 3 μL DMSO, or inhibitor dissolved in DMSO and 27 μL DltA enzyme and DTT in AB. After 30 min of pre-incubation at room temperature, 30 μL of Substrates mix in AB are added in each well to a final volume of 60 μL. This reaction mixture is then composed of 10 nM DltA (produced in house from S. agalactiae), 0.5 mM D-Alanine (Sigma), 0.5 μM ATP (Sigma) and 1 mM DTT (Biochemika) in assay buffer. After 90 min of incubation at room temperature, 30 μL of the revelation mix are added to a final volume of 90 μL, including the following constituents at the respective final concentrations: 2 nM luciferase (Sigma), 30 μM D-luciferin (Sigma), 100 μM N-acetylcysteamine (Aldrich). Luminescence intensity is immediately measured on an Analyst-HT (Molecular Devices) and converted into inhibition percentages. For IC50 (Inhibitory Concentration 50%) determinations, the inhibitor is added at 6 to 10 different concentrations, and the related inhibitions are fitted to a classical langmuir equilibrium model using XLFIT (IDBS).
The assay buffer “AB” contains 50 mM Hepes pH8.0, 10 mM MgCl2, 50 mM KCl, 0.012% Triton-X100. The following components are added in a black polystyrene Costar plate up to a final volume of 50 μL: 5 μL DMSO, or inhibitor dissolved in DMSO and 45 μL DltA enzyme and DTT in AB. After 30 min of pre-incubation at room temperature, 50 μL of Substrates-revelation mix in AB are added in each well to a final volume of 100 μL. This reaction mixture is then composed of 5 nM DltA (produced in house from S. agalactiae), 0.5 mM D-Alanine (Sigma), 10 μM ATP (Sigma), 1 mM DTT (Biochemika), 10 nM Adenylate kinase (produced in house), 5 u/mL Pyruvate Kinase (Sigma), 50 μM phosphoenolpyruvate (Sigma), 5 u/mL Lactate deshydrogenase (Sigma) and 3 μM NADH (Sigma) in assay buffer. Fluorescence intensity of NADH (λex=360 nm, λem=520 nm) is immediately measured kinetically by a Fluostar Optima (BMG). Inhibition percentages are derived from fitted initial velocities. For IC50 determinations, the inhibitor is added at 6 to 10 different concentrations, and the related inhibitions are fitted to a classical langmuir equilibrium model using XLFIT (IDBS). FIG. 2 represents the data obtained using this method.
The capacity of compounds to inhibit DltA enzymatic activity was assessed using the DltA HTS assays described in method 1.
`COc1ccc(-c2cc(-c3cnc4c(NCCCO)nc5cc(C(F)(F)F)ccc5n34)[nH]n2)cc1` [Example 31, 3-({1-[1H-pyrazol-3-(4-methoxyphenyl)-5-yl]-7-(trifluoromethyl)imidazo[1,2-a]quinoxalin-4-yl}amino)propan-1-ol] gave an IC50 of 0.79 µM.

The same test, now with this note: IC50 (μM), Table 1; DltA inhibition, HTS assays of method 1.
`CS(=O)(=O)Nc1ccc(-c2cnc3c(NCCCO)nc4cc(C(F)(F)F)ccc4n23)cc1` [Example 23, N-{4-[4-(3-Hydroxy-propylamino)-7-trifluoromethyl-imidazo[1,2-a]quinoxalin-1-yl]phenyl}-methanesulfonamide Sodium salt] registered an IC50 of 0.21 µM.

The same test, now with this note: Table 1; DltA inhibition, HTS assays of method 1; read-out: IC50.
For `OCCCNc1nc2cc(C(F)(F)F)ccc2n2c(-c3ncc[nH]3)cnc12` [Example 46, 3-{[1-(1H-imidazol-2-yl)-7-(trifluoromethyl)imidazo[1,2-a]quinoxalin-4-yl]amino}propan-1-ol], the IC50 was 3.5 µM.

As to `CS(=O)(=O)N1CC=C(c2cnc3c(NCCCO)nc4cc(C(F)(F)F)ccc4n23)CC1` [Example 29, 3-[1-(1-methanesulfonyl-1,2,3,6-tetrahydro-pyridin-4-yl)-7-trifluoromethyl-imidazo[1,2-a]quinoxalin-4-ylamino]-propan-ol], the 50% inhibitory concentration (IC50) came out at 0.41 µM. Same read-out and setting: in the case of `C=Cc1cnc2c(NCCCO)nc3cc(C(F)(F)F)ccc3n12` [Example 22, 3-{[7-(trifluoromethyl)-1-vinylimidazo[1,2-a]quinoxalin-4-yl]amino}propan-1-ol] it was 1 µM. Same read-out and setting: in the case of `OCCCNc1nc2cc(C(F)(F)F)ccc2n2c(-c3cn(Cc4ccccc4)nn3)cnc12` [Example 34] it was 0.58 µM; in that of `OCCCNc1nc2cc(C(F)(F)F)ccc2n2c(I)cnc12` [Example 3, 3-{[1-iodo-7-(trifluoromethyl)imidazo[1,2-a]quinoxalin-4-yl]amino}propan-1-ol], 0.62 µM; in that of `OCCCNc1nc2cc(C(F)(F)F)ccc2n2c(CO)cnc12` [Example 42, 3-{[1-(hydroxymethyl)-7-(trifluoromethyl)imidazo[1,2-a]quinoxalin-4-yl]amino}propan-1-ol], 1.1 µM. On the same count and under the same terms, in the case of `Nc1ncc(-c2cnc3c(NCCCO)nc4cc(C(F)(F)F)ccc4n23)cn1` [Example 20, 3-{[1-(2-aminopyrimidin-5-yl)-7-(trifluoromethyl)imidazo[1,2-a]quinoxalin-4-yl]amino}propan-1-ol] it was 0.86 µM; in that of `OCCCNc1nc2cc(C(F)(F)F)ccc2n2c(-c3cc(CO)n[nH]3)cnc12` [Example 49, 3-({1-[3-(hydroxymethyl)-1H-pyrazol-5-yl]-7(trifluoromethyl)imidazo[1,2-a]quinoxalin-4-yl}amino)propan-1-ol], 0.016 µM; in that of `OCCCNc1nc2cc(C(F)(F)F)ccc2n2c(Br)cnc12` [Example 2, 3-{[1-bromo-7-(trifluoromethyl)imidazo[1,2-a]quinoxalin-4 yl]amino}propan-1-ol], 2.5 µM.

Consider `COc1ccc(-n2cnc3c(NCCCO)nc4cc(C(F)(F)F)ccc4c32)cc1` [Example 24, 3-[1-(4-Methoxy-phenyl)-7-trifluoromethyl-1H-imidazo[4,5-c]quinolin-4-ylamino]-propan-1-ol], for which the IC50 worked out at 3.9 µM.

On to `OCCCNc1nc2cc(C(F)(F)F)ccc2n2c(C3=CCNCC3)cnc12` [Example 27, 3-[1-(1,2,3,6-tetrahydro-pyridin-4-yl)-7-trifluoromethyl-imidazo[1,2-a]quinoxalin-4-ylamino]-propan-1-ol], for which the IC50 was determined as 2.6 µM. The same measure, in the same setting: in the case of `OCCCNc1nc2cc(C(F)(F)F)ccc2n2c(-c3ccccc3)cnc12` [Example 11, 3-{[1-phenyl-7-(trifluoromethyl)imidazo[1,2-a]quinoxalin-4-yl]amino}propan-1-ol] it was 0.73 µM. Same read-out and setting: under `OCCCNc1nc2cc(C(F)(F)F)c(NCc3ccccc3)cc2n2ccnc12` [Example 56, 3-{[8-(benzylamino)-7-(trifluoromethyl)imidazo[1,2-a]quinoxalin-4-yl]amino}propan-1-ol] stands 0.81 µM; under `OCCCNc1nc2cc(C(F)(F)F)ccc2n2c(-c3cn[nH]c3)cnc12` [Example 17, 3-{[1-(1H-pyrazol-4-yl)-7-(trifluoromethyl)imidazo[1,2-a]quinoxalin-4-yl]amino}propan-1-ol], 0.51 µM; under `OCCCNc1nc2cc(Br)ccc2n2ccnc12` [Example 4, 3-(7-bromo-imidazo[1,2-a]quinoxalin-4-ylamino)-propan-1-ol], 6.6 µM. Same read-out and setting: under `OCCCNc1nc2cc(C(F)(F)F)c(CNc3ccccn3)cc2n2ccnc12` [Example 53, 3-({8-[(pyridin-2-ylamino)methyl]-7-(trifluoromethyl)imidazo[1,2-a]quinoxalin-4-yl}amino)propan-1-ol] stands 0.51 µM. Regarding `OCCCNc1nc2cc(C(F)(F)F)ccc2n2c(-c3cc(O)n[nH]3)cnc12` [Example 37, 3-({1-(3-hydroxy-1H-pyrazol-5-yl)-7-(trifluoromethyl)imidazo[1,2-a]quinoxalin-4-yl}amino)propan-1-ol], the IC50 was 0.16 µM.

Take `Cc1cn[nH]c1-c1cnc2c(NCCCO)nc3cc(C(F)(F)F)ccc3n12` [Example 40, 3-({1-[4-methyl-1H-pyrazol-5-yl]-7-(trifluoromethyl)imidazo[1,2-a]quinoxalin-4-yl}amino)propan-1-ol]: the IC50 worked out at 0.057 µM. Still for that read-out and setting: in the case of `OCCCNc1nc2cc(C(F)(F)F)c(Br)cc2n2ccnc12` [Example 52, 3-(8-bromo-7-trifluoromethyl-imidazo[1,2-a]quinoxalin-4-ylamino)-propan-1-ol] it was 8.7 µM; in that of `COc1ccc(-c2cnc3c(NCCCO)nc4cc(C(F)(F)F)ccc4n23)cn1` [Example 13, 3-{[1-(6-methoxypyridin-3-yl)-7-(trifluoromethyl)imidazo[1,2-a]quinoxalin-4-yl]amino}propan-1-ol], 0.48 µM; in that of `CCSc1ccc2c(c1)nc(NCCCO)c1nccn12` [Example 6], 6.5 µM. The same measure, in the same setting: in the case of `OCCCNc1nc2cc(C(F)(F)F)ccc2n2ccnc12` [Example 1, 3-{[7-(trifluoromethyl)imidazo[1,2-a]quinoxalin-4-yl]amino}propan-1-ol] it was 3.2 µM. On the same count and under the same terms, under `O=Cc1cnc2c(NCCCO)nc3cc(C(F)(F)F)ccc3n12` [Example 41, 4-[(3-hydroxypropyl)amino]-7-(trifluoromethyl)imidazo[1,2-a]quinoxaline-1-carbaldehyde] stands 4.6 µM; under `NCc1cnc2c(NCCCO)nc3cc(C(F)(F)F)ccc3n12` [Example 45, 3-{[1-(aminomethyl)-7-(trifluoromethyl)imidazo[1,2-a]quinoxalin-4-yl]amino}propan-1-ol], 5.5 µM; under `COc1cc(-c2cnc3c(NCCCO)nc4cc(C(F)(F)F)ccc4n23)ccc1N` [Example 21], 0.27 µM.
